# Values quoted from earlier work in article PMC10093509, “Diagnosis and Treatment of Peripheral and Cranial Nerve Tumors with Expert Recommendations: An EUropean Network for RAre CANcers (EURACAN) Initiative” (Cancers, 2023).
# Read-outs that look alike come from different tables or passages of the source. *1 amine or outer side, *2 acyl side, *3 side chain or, on linkers, in order; H or OH if unused. Where a SMILES comes first, the peptide text is derived from it. Bridges are numbered along the chain shown (N, C = ends). Roman numbers before positions name the chains, in order. [ ]: non-standard residue; d: D form. Actinocin(9to1) = Cc1c2oc3c(C)ccc(C(=O)[*:1])c3nc-2c(C(=O)[*:2])c(N)c1=O; NMeV = CN[C@H](C(=O)O)C(C)C; Sar = CNCC(=O)O
# Tests used:
# advanced MPNST = tested on: advanced MPNST; design: method as in PMID 32638374
# MPNST [1] = tested on: MPNST; design: method as in PMID 20838322; details: alone or in combination
# [2] = tested on: plexiform neurofibromas (PN) of neurofibromatosis; design: method as in PMID 23099009, PMID 24500418, PMID 24753394, PMID 24851266, PMID 25314964; details: initial studies
# MPNST [3] = tested on: MPNST; design: method as in doi:10.1200/jco.2006.24.18_suppl.9518
# NF1-associated MPNST = tested on: NF1-associated MPNST; design: method as in PMID 35100687; details: one patient
# [4] = tested on: MPNST harboring a novel SNRNP70-NTRK3 fusion gene
# MPNST [5] = tested on: MPNST; design: method as in PMID 19451436; details: 15 patients
# MPNST [6] = tested on: MPNST; design: method as in PMID 19451433; details: seven MPNST patients
# NF1 inoperable PNs [7] = tested on: NF1 inoperable PNs; design: method as in PMID 28029918
# NF1 inoperable PNs [8] = tested on: NF1 inoperable PNs
# spinal PNs = tested on: spinal PNs; design: method as in PMID 35467749, PMID 32939452
# asymptomatic PNs = tested on: asymptomatic PNs; design: method as in PMID 35467749; details: median 41 cycles (2–67)
# [9] = tested on: unresectable, symptomatic, and progressive PNs; details: adults
# [10] = tested on: NF1 PNs, progressive or causing significant neurological symptoms
# [11] = tested on: progressive and/or symptomatic PNs; design: method as in PMID 33507822
# MPNST [12] = tested on: MPNST; design: method as in PMID 26710211; details: 14 MPNST patients
# [13] = tested on: sporadic metastatic MPNST; design: method as in PMID 31383651; details: one patient; following four cycles
# [14] = tested on: progressive vestibular schwannomas (VS) associated with NF2; design: method as in PMID 26976425; details: 7.5 mg/kg every 3 weeks
# [15] = tested on: progressive VS associated with NF2; design: method as in PMID 22805104
# NF-1-associated PN = tested on: NF-1-associated PN; design: method as in doi:10.1200/JCO.2018.36.15_suppl.10504
# [16] = tested on: NF-1-associated PNs or low-grade gliomas; design: method as in PMID 36015104; details: meta-analysis
# [17] = tested on: progressive or symptomatic inoperable PNs
# MPNST [18] = tested on: MPNST; design: method as in PMID 24618336
# [19] = tested on: unresectable or metastatic MPNST; design: method as in PMID 33512749; details: one patient with NF1-associated MPNST; selinexor alone
# MPNST [20] = tested on: MPNST; design: method as in PMID 27502708
compound,measurement,setting,value
Cc1ccc(Nc2nccc(N(C)c3ccc4c(C)n(C)nc4c3)n2)cc1S(N)(=O)=O [pazopanib],OS,advanced MPNST,10.6 months
same,PFS,advanced MPNST,5.4 months
same,clinical benefit rate,advanced MPNST; at 12 weeks,50%
N.N.O=C([O-])C1(C(=O)[O-])CCC1.[Pt+2] [carboplatin],results in treatment of MPNST,MPNST [1],disappointing results
N.N.[Cl][Pt][Cl] [cisplatin],results in treatment of MPNST,MPNST [1],disappointing results
Cc1ccc(=O)n(-c2ccccc2)c1 [pirfenidone],benefit in PN,[2],limited benefits
C#Cc1cccc(Nc2ncnc3cc(OCCOC)c(OCCOC)cc23)c1 [erlotinib],OS,MPNST [3],48 weeks
same,PFS,MPNST [3],24 weeks
nivolumab,response,NF1-associated MPNST,prolonged PR
CN1CCN(c2ccc(C(=O)Nc3n[nH]c4ccc(Cc5cc(F)cc(F)c5)cc34)c(NC3CCOCC3)c2)CC1 [entrectinib],response,[4]; one heavily pretreated patient,dramatic response
same,duration of response,[4]; one patient,10 months
CNC(=O)c1cc(Oc2ccc(NC(=O)Nc3ccc(Cl)c(C(F)(F)F)c3)cc2)ccn1 [sorafenib],radiological responses,MPNST [5],absence of radiological responses
Cc1ccc(NC(=O)c2ccc(CN3CCN(C)CC3)cc2)cc1Nc1nccc(-c2cccnc2)n1 [imatinib],benefit in PN,[2],limited benefits
same,best response,MPNST [6],stable disease as the best response in one patient
same,median PFS,MPNST [6],1.9 months
Cn1cnc2c(F)c(Nc3ccc(Br)cc3Cl)c(C(=O)NOCCO)cc21 [selumetinib],median reduction in tumor volume,NF1 inoperable PNs [7]; phase 1,31%
same,stable disease (patients),NF1 inoperable PNs [7]; phase 1,2
same,objective response rate (ORR),"NF1 inoperable PNs [7]; phase 1, 3–18 years",71%
same,median time PR maintained,NF1 inoperable PNs [7]; range 6–42,23 cycles
same,clinically meaningful improvement in child-reported interference of pain in daily functioning,NF1 inoperable PNs [8]; SPRINT,38%
same,clinically meaningful improvement in overall health-related QoL,NF1 inoperable PNs [8]; SPRINT,48%
same,median reduction in tumor volume,NF1 inoperable PNs [8]; SPRINT,27%
same,ORR,"NF1 inoperable PNs [8]; SPRINT, 50 patients",68%
same,median progression-free survival (PFS),NF1 inoperable PNs [8]; at the time of interim-analysis,not reached
same,toxicity,"NF1 inoperable PNs [8]; children, creatine kinase increase, rash, paronychia, gastrointestinal toxicity",mostly mild and reversible
same,clinical benefit and radiological response with reduction of spinal canal distortion and/or spinal cord deformity (patients),spinal PNs,18/24
same,patients achieving tumor shrinkage,asymptomatic PNs,72%
same,increased liver enzymes (patients),[9],five
same,pain intensity,[9],decreased pain intensity
same,pancreatic enzyme elevation (patients),[9],one
same,rash (patients),[9],one
same,ORR,[9]; phase 2,69%
same,tumor volume shrinkage as best response,[9]; phase 2,22%
CO[C@H]1C[C@@H]2CC[C@@H](C)[C@@](O)(O2)C(=O)C(=O)N2CCCC[C@H]2C(=O)O[C@H]([C@H](C)C[C@@H]2CC[C@@H](O)[C@H](OC)C2)CC(=O)[C@H](C)/C=C(\C)[C@@H](O)[C@@H](OC)C(=O)[C@H](C)C[C@H](C)/C=C/C=C/C=C/1C [sirolimus],benefit in PN,[2],limited benefits
Cn1cnc2c(F)c(Nc3ccc(Br)cc3F)c(C(=O)NOCCO)cc21 [binimetinib],discontinuation of treatment (patients),[10],2 patients
same,dose reduction required for grade 3 adverse events (patients),[10],13 patients
same,PR,[10]; 14 out of 19 patients,73.7%
O=C(NOC[C@H](O)CO)c1ccc(F)c(F)c1Nc1ccc(I)cc1F [Mirdametinib],median reduction in tumor volume,[11],17.1%
same,most frequent AEs,[11],"acneiform rash, fatigue, and nausea"
same,patient-reported outcomes over treatment,[11],improvement
"Cc1c2oc3c(C)ccc(C(=O)N[C@@H]4C(=O)N[C@H](C(C)C)C(=O)N5CCC[C@H]5C(=O)N(C)CC(=O)N(C)[C@@H](C(C)C)C(=O)O[C@@H]4C)c3nc-2c(C(=O)N[C@@H]2C(=O)N[C@H](C(C)C)C(=O)N3CCC[C@H]3C(=O)N(C)CC(=O)N(C)[C@@H](C(C)C)C(=O)O[C@@H]2C)c(N)c1=O [dactinomycin] (I: T[dV]P[Sar][NMeV] / II: T[dV]P[Sar][NMeV]; ester I:1-I:C, II:1-II:C; linker I:N-II:N via Actinocin(9to1))",results in treatment of MPNST,MPNST [1],disappointing results
interferon alfa-2b,benefit in PN,[2],limited benefits
Cc1nc(Nc2ncc(C(=O)Nc3c(C)cccc3Cl)s2)cc(N2CCN(CCO)CC2)n1 [dasatinib],ORR,MPNST [12],did not show any ORR
pembrolizumab,response,[13],complete response
bevacizumab,partial radiographic response with volume reduction of 20% or more (patients),[14]; 6/14 patients,43%
same,hearing improvement (patients),[14]; NF2 patients with progressive VS,36%
same,hearing and radiographic outcome,[15],remarkable improvement of hearing and objective radiographic responses
CC[C@]1(O)C[C@H]2CN(CCc3c([nH]c4ccccc34)[C@@](C(=O)OC)(c3cc4c(cc3OC)N(C=O)[C@H]3[C@@](O)(C(=O)OC)[C@H](OC(C)=O)[C@]5(CC)C=CCN6CC[C@]43[C@@H]65)C2)C1 [vincristine],results in treatment of MPNST,MPNST [1],disappointing results
CC(=O)Nc1cccc(-n2c(=O)n(C3CC3)c(=O)c3c(Nc4ccc(I)cc4F)n(C)c(=O)c(C)c32)c1 [trametinib],duration of radiological response,NF-1-associated PN,more than 12 months
same,PR,"NF-1-associated PN; 12 out of 26 patients, interim analysis",46%
same,side effects,NF-1-associated PN; such as paronychia and rash,manageable
same,ORR,[16],45.3%
same,disease control rate,[16],99.8%
COc1cc2nccc(Oc3ccc(NC(=O)C4(C(=O)Nc5ccc(F)cc5)CC4)cc3)c2cc1OC [Cabozantinib],patients who experienced grade 3 adverse events,[17],38%
same,quality of life,[17],no significant improvement
same,ORR,[17]; NF-105,42%
same,intensity of pain,"[17]; after four cycles, patients who achieved a PR",early decrease
same,tumor volume reduction,[17]; from 2.8% to −38.0%,15%
COc1cccc2c1C(=O)c1c(O)c3c(c(O)c1C2=O)C[C@@](O)(C(=O)CO)C[C@@H]3O[C@H]1C[C@H](N)[C@H](O)[C@H](C)O1 [doxorubicin],median OS,MPNST [18],51 weeks
same,median PFS,MPNST [18],16 weeks
Cn1cncc1[C@@](N)(c1ccc(Cl)cc1)c1ccc2c(c1)c(-c1cccc(Cl)c1)cc(=O)n2C [tipifarnib],benefit in PN,[2],limited benefits
O=C(/C=C\n1cnc(-c2cc(C(F)(F)F)cc(C(F)(F)F)c2)n1)NNc1cnccn1 [selinexor],duration of disease stabilization,[19],13.5 months
COc1cc(Nc2ncc3c(n2)-c2ccc(Cl)cc2C(c2c(F)cccc2OC)=NC3)ccc1C(=O)O [alisertib],OS,MPNST [20],69 weeks
same,PFS,MPNST [20],13 weeks
c1c[nH]cn1 [imidazole],results in treatment of MPNST,MPNST [1],disappointing results
O=P1(N(CCCl)CCCl)NCCCO1 (stereo not shown) [cyclophosphamide],results in treatment of MPNST,MPNST [1],disappointing results
CO[C@H]1C[C@@H]2CC[C@@H](C)[C@@](O)(O2)C(=O)C(=O)N2CCCC[C@H]2C(=O)O[C@H]([C@H](C)C[C@@H]2CC[C@@H](OCCO)[C@H](OC)C2)CC(=O)[C@H](C)/C=C(\C)[C@@H](O)[C@@H](OC)C(=O)[C@H](C)C[C@H](C)/C=C/C=C/C=C/1C [everolimus],benefit in PN,[2],limited benefits
